In this assay the target is T1, IRAK4 (Homo sapiens, UniProt Q9NWZ3).
T1 construct: Degradation of IRAK4 in OCI-LY10 was quantitatively measured using Meso Scale Discovery technology; endogenous in cells; host or cells: OCI-LY10
T1 sequence (Q9NWZ3 1-460): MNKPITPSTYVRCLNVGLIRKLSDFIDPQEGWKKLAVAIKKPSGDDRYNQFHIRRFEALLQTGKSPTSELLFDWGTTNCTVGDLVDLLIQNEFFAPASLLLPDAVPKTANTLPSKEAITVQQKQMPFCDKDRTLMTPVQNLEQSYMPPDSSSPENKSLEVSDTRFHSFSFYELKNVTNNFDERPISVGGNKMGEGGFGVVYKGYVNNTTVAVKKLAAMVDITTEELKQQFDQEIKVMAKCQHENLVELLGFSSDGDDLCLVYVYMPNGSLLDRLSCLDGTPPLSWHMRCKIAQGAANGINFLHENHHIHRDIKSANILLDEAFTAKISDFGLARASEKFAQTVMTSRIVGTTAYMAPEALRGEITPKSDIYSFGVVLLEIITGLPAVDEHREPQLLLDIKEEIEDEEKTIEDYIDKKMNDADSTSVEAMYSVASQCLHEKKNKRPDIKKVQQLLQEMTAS
The experiment in a line: IRAK4 MSD Degradation in OCI-LY10. Type of assay: cell-based. Particulars: OCI-LY10 cells, MSD. In outline: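 OCI-LY10 cells exposed to 8-point 1:3 compound series (top 1 to 10 μM) for 4 to 24 h at 37 °C, 5% CO2. Lysate IRAK4 quantified by MSD sandwich immunoassay. DC50 from three-parameter logistic fit, binned A (<0.01 μM) to D (>0.2 μM or not tested).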

Where [1] appears, read: 4 hrs incubation, read-out: IRAK4 degradation in OCI-LY10 at 4 hrs: DC50.
Setting [2] is: 24 hrs incubation, read-out: IRAK4 degradation in OCI-LY10 at 24 hrs: DC50.

Like-named read-outs stand apart in the source and are kept apart here.

In general, DC50 refers to the concentration giving 50% degradation.

For the molecule `Cc1cc2nn([C@H]3CC[C@H](CN4CCC(c5cccc6c5n(C)c(=O)n6C5CCC(=O)NC5=O)C(F)C4)CC3)cc2cc1NC(=O)c1cccc(C(F)(F)F)n1` (some centres unmarked) [I-550], the DC50 by setting is: under setting [1], > 200 nM; under setting [2], < 10 nM. `COc1ccc2c(c1C1CCN(C[C@H]3CC[C@H](n4cc5cc(NC(=O)c6cccc(C(F)(F)F)n6)ccc5n4)CC3)CC1F)n(C)c(=O)n2C1CCC(=O)NC1=O` (some centres unmarked) [I-551]: the DC50 by setting is: under setting [1], > 200 nM; under setting [2], > 200 nM. Regarding `Cn1c(=O)n(C2CCC(=O)NC2=O)c2cccc(C3CCN(C[C@H]4CC[C@H](n5cc6cc(NC(=O)c7cccc(C(F)(F)F)n7)c(Cl)cc6n5)CC4)CC3F)c21` (some centres unmarked) [I-552], the DC50 was > 200 nM under setting [1] and 10 to 100 nM under setting [2]. In the case of `Cn1c(=O)n(C2CCC(=O)NC2=O)c2cccc(C3CCN(C[C@H]4CC[C@H](n5cc6cc(NC(=O)c7cccc(C(F)(F)F)n7)ccc6n5)CC4)CC3F)c21` (some centres unmarked) [I-553], the DC50 is > 200 nM under setting [1] and < 10 nM under setting [2].

As for `Cn1c(=O)n(C2CCC(=O)NC2=O)c2cccc(C3CCN(C[C@H]4CC[C@H](n5cc6cc(NC(=O)c7cccc(C(F)(F)F)n7)c(F)cc6n5)CC4)CC3F)c21` (some centres unmarked) [I-554], the DC50 is, setting by setting: under setting [1], > 200 nM; under setting [2], 10 to 100 nM. In the case of `CN(C[C@H]1CC[C@H](n2cc3cc(NC(=O)c4cccc(C(F)(F)F)n4)ccc3n2)CC1)C1CCN(c2cccc3c2n(C)c(=O)n3C2CCC(=O)NC2=O)CC1F` (some centres unmarked) [I-555], the DC50 is, setting by setting: under setting [1], > 200 nM; under setting [2], 10 to 100 nM. For the molecule `COc1cc2nn([C@H]3CC[C@H](CN(C)C4CCN(c5cccc6c5n(C)c(=O)n6C5CCC(=O)NC5=O)CC4F)CC3)cc2cc1NC(=O)c1cccc(C(F)(F)F)n1` (some centres unmarked) [I-556], the DC50 by setting is: under setting [1], > 200 nM; under setting [2], > 200 nM. With `CN(C[C@H]1CC[C@H](n2cc3cc(NC(=O)c4cccc(C(F)(F)F)n4)c(C(F)F)cc3n2)CC1)C1CCN(c2cccc3c2n(C)c(=O)n3C2CCC(=O)NC2=O)CC1F` (some centres unmarked) [I-557], the DC50 runs as follows: under setting [1], > 200 nM; under setting [2], > 200 nM. On to `CN(C[C@H]1CC[C@H](n2cc3cc(NC(=O)c4cccc(C(F)(F)F)n4)c(C#N)cc3n2)CC1)C1CCN(c2cccc3c2n(C)c(=O)n3C2CCC(=O)NC2=O)CC1F` (some centres unmarked) [I-558], for which the DC50 under setting [1] is > 200 nM and the DC50 under setting [2] is > 200 nM. With `CN(C[C@H]1CC[C@H](n2cc3cc(NC(=O)c4cccc(C(F)(F)F)n4)c(S(C)(=O)=O)cc3n2)CC1)C1CCN(c2cccc3c2n(C)c(=O)n3C2CCC(=O)NC2=O)CC1F` (some centres unmarked) [I-559], the DC50 under setting [1] was > 200 nM and the DC50 under setting [2] is > 200 nM. As for `CN(C[C@H]1CC[C@H](n2cc3cc(NC(=O)c4cccc(C(F)(F)F)n4)c(S(C)(=N)=O)cc3n2)CC1)C1CCN(c2cccc3c2n(C)c(=O)n3C2CCC(=O)NC2=O)CC1F` (some centres unmarked) [I-560], the DC50 is > 200 nM under setting [1] and > 200 nM under setting [2].

In the case of `CN(C[C@H]1CC[C@H](n2cc3cc(NC(=O)c4cccc(C(F)(F)F)n4)c([S+](C)[O-])cc3n2)CC1)C1CCN(c2cccc3c2n(C)c(=O)n3C2CCC(=O)NC2=O)CC1F` (some centres unmarked) [I-561], the DC50 is, setting by setting: under setting [1], > 200 nM; under setting [2], > 200 nM. Turning to `COc1ccc2c(c1N1CCC(N(C)C[C@H]3CC[C@H](n4cc(NC(=O)c5cnn6cccnc56)c(C(F)F)n4)CC3)C(F)C1)n(C)c(=O)n2C1CCC(=O)NC1=O` (some centres unmarked) [I-563], the DC50 by setting is: under setting [1], > 200 nM; under setting [2], > 200 nM. Turning to `Cn1c(=O)n(C2CCC(=O)NC2=O)c2cccc(N3CC(F)(F)C34CN(C[C@H]3CC[C@H](n5cc6cc(NC(=O)c7cccc(C(F)(F)F)n7)c(C#N)cc6n5)CC3)C4)c21` (some centres unmarked) [I-564], the DC50 under setting [1] is > 200 nM and the DC50 under setting [2] is > 200 nM. In the case of `Cn1c(=O)n(C2CCC(=O)NC2=O)c2cccc(N3CC4(C3)N(C[C@H]3CC[C@H](n5cc6cc(NC(=O)c7cccc(C(F)(F)F)n7)c(C#N)cc6n5)CC3)CC4(F)F)c21` (some centres unmarked) [I-565], the DC50 runs as follows: under setting [1], > 200 nM; under setting [2], > 200 nM. As for `Cn1c(=O)n(C2CCC(=O)NC2=O)c2cccc(N3CCC(N4CC5(CCC(n6cc7cc(NC(=O)c8cccc(C(F)(F)F)n8)c(C#N)cc7n6)CC5)C4)C(F)(F)C3)c21` (centres unmarked) [I-566], the DC50 is > 200 nM under setting [1] and > 200 nM under setting [2].

Consider `Cn1c(=O)n(C2CCC(=O)NC2=O)c2cccc(N3CCC(F)(CN4CC5(CCC(n6cc7cc(NC(=O)c8cccc(C(F)(F)F)n8)c(C#N)cc7n6)CC5)C4)CC3)c21` (centres unmarked) [I-567], for which the DC50 reads like this: under setting [1], > 200 nM; under setting [2], > 200 nM.

For `Cn1c(=O)n(C2CCC(=O)NC2=O)c2ccc(C3CCN(C[C@H]4CC[C@H](n5cc6cc(NC(=O)c7cccc(C(F)(F)F)n7)c(C#N)cc6n5)CC4)CC3(F)F)cc21` (some centres unmarked) [I-568], the DC50 was > 200 nM under setting [1] and > 200 nM under setting [2].

As for `Cn1c(=O)n(C2CCC(=O)NC2=O)c2ccc(C3CCN(C[C@H]4CC[C@H](n5cc6cc(NC(=O)c7cccc(C(F)(F)F)n7)c(C(F)F)cc6n5)CC4)CC3(F)F)cc21` (some centres unmarked) [I-569], the 50% degradation concentration (DC50) runs as follows: under setting [1], > 200 nM; under setting [2], > 200 nM.

In the case of `CN(C[C@H]1CC[C@H](n2cc(NC(=O)c3cnn4cccnc34)c(C(F)F)n2)CC1)C1CCN(c2ccc3c(c2)n(C)c(=O)n3C2CCC(=O)NC2=O)CC1(F)F` (some centres unmarked) [I-570], under setting [1], the DC50 is > 200 nM. As to `Cn1c(=O)n(C2CCC(=O)NC2=O)c2cccc([C@H]3C[C@H](COC4CCN(C[C@H]5CC[C@H](n6cc(NC(=O)c7cnn8ccc(N9C[C@H]%10C[C@@H]9CO%10)nc78)c(C(F)F)n6)CC5)CC4F)C3)c21` (some centres unmarked) [I-571], the 50% degradation concentration (DC50) was > 200 nM under setting [1] and > 200 nM under setting [2]. Take `Cn1c(=O)n(C2CCC(=O)NC2=O)c2cccc([C@H]3C[C@H](CN4CCN(C[C@H]5CC[C@H](n6cc(NC(=O)c7cnn8cccnc78)c(C(F)F)n6)CC5)CC4)C3)c21` (some centres unmarked) [I-572]: the DC50 by setting is: under setting [1], > 200 nM; under setting [2], > 200 nM.

Consider `Cn1c(=O)n(C2CCC(=O)NC2=O)c2cccc([C@H]3C[C@@H]3CN3CCN(C[C@H]4CC[C@H](n5cc(NC(=O)c6cnn7ccc(N8C[C@H]9CC8CO9)nc67)c(C(F)F)n5)CC4)CC3)c21` (some centres unmarked) [I-573], for which the DC50 under setting [1] was > 200 nM and the half-maximal degradation concentration (DC50) under setting [2] was > 200 nM. Take `Cn1c(=O)n(C2CCC(=O)NC2=O)c2cccc([C@H]3C[C@](F)(CN4CCN(C[C@H]5CC[C@H](n6cc(NC(=O)c7cnn8ccc(N9C[C@H]%10CC9CO%10)nc78)c(C(F)F)n6)CC5)CC4)C3)c21` (some centres unmarked) [I-574]: the DC50 by setting is: under setting [1], > 200 nM; under setting [2], > 200 nM. On to `C[C@@H]([C@H]1C[C@H](c2cccc3c2n(C)c(=O)n3C2CCC(=O)NC2=O)C1)N1CCN(C[C@H]2CC[C@H](n3cc(NC(=O)c4cnn5ccc(N6C[C@H]7CC6CO7)nc45)c(C(F)F)n3)CC2)CC1` (some centres unmarked) [I-575], for which the DC50 reads like this: under setting [1], > 200 nM; under setting [2], > 200 nM. Regarding `Cn1c(=O)n(C2CCC(=O)NC2=O)c2cccc(C[C@H]3C[C@H](N4CCN(C[C@H]5CC[C@H](n6cc(NC(=O)c7cnn8ccc(N9C[C@H]%10CC9CO%10)nc78)c(C(F)F)n6)CC5)CC4)C3)c21` (some centres unmarked) [I-576], the DC50 was > 200 nM under setting [1] and < 10 nM under setting [2]. As for `Cn1c(=O)n(C2CCC(=O)NC2=O)c2cccc(O[C@H]3C[C@H](N4CCN(C[C@H]5CC[C@H](n6cc(NC(=O)c7cnn8ccc(N9C[C@H]%10CC9CO%10)nc78)c(C(F)F)n6)CC5)CC4)C3)c21` (some centres unmarked) [I-577], the DC50 was > 200 nM under setting [1] and > 200 nM under setting [2]. For `CO[C@]1(CN2CCN(C[C@H]3CC[C@H](n4cc(NC(=O)c5cnn6ccc(N7C[C@H]8CC7CO8)nc56)c(C(F)F)n4)CC3)CC2)C[C@H](c2cccc3c2n(C)c(=O)n3C2CCC(=O)NC2=O)C1` (some centres unmarked) [I-579], the DC50 was > 200 nM under setting [1] and > 200 nM under setting [2].

Turning to `Cn1c(=O)n(C2CCC(=O)NC2=O)c2cccc([C@H]3C[C@](O)(CN4CCN(C[C@H]5CC[C@H](n6cc(NC(=O)c7cnn8ccc(N9C[C@H]%10CC9CO%10)nc78)c(C(F)F)n6)CC5)CC4)C3)c21` (some centres unmarked) [I-580], the 50% degradation concentration (DC50) was > 200 nM under setting [1] and < 10 nM under setting [2].

As for `Cn1c(=O)n(C2CCC(=O)NC2=O)c2cccc(N3CC(O[C@@H]4CCN(C[C@H]5CC[C@H](n6cc(NC(=O)c7cnn8ccc(N9C[C@H]%10C[C@@H]9CO%10)nc78)c(C(F)F)n6)CC5)C[C@@H]4F)C3)c21` (some centres unmarked) [I-581], the DC50 is > 200 nM under setting [1] and < 10 nM under setting [2]. Consider `Cn1c(=O)n(C2CCC(=O)NC2=O)c2cccc(N3CC(O[C@@H]4CCN(C[C@H]5CC[C@H](n6cc(NC(=O)c7cnn8ccc(N9C[C@H]%10C[C@@H]9CO%10)nc78)c(C(F)F)n6)CC5)C[C@H]4F)C3)c21` (some centres unmarked) [I-582], for which the DC50 is, setting by setting: under setting [1], > 200 nM; under setting [2], > 200 nM. For `Cn1c(=O)n(C2CCC(=O)NC2=O)c2cccc(N3CC(O[C@H]4CCN(C[C@H]5CC[C@H](n6cc(NC(=O)c7cnn8ccc(N9C[C@H]%10C[C@@H]9CO%10)nc78)c(C(F)F)n6)CC5)C[C@@H]4F)C3)c21` (some centres unmarked) [I-583], the DC50 was > 200 nM under setting [1] and > 200 nM under setting [2]. In the case of `Cn1c(=O)n(C2CCC(=O)NC2=O)c2cccc(N3CC(O[C@H]4CCN(C[C@H]5CC[C@H](n6cc(NC(=O)c7cnn8ccc(N9C[C@H]%10C[C@@H]9CO%10)nc78)c(C(F)F)n6)CC5)C[C@H]4F)C3)c21` (some centres unmarked) [I-584], the DC50 was > 200 nM under setting [1] and > 200 nM under setting [2].

For the origin of these results see patent publication US12091411B2, “IRAK degraders and uses thereof” (Kymera Therapeutics, Inc., priority 2022, dated 2024).
